US20240287076A1, “COMPOUNDS FOR TARGETING DEGRADATION OF BRUTON'S TYROSINE KINASE” (BIOGEN MA INC., priority 2021, published 2024)

These molecules were tested against T1, BTK (Homo sapiens, UniProt Q06187) (assay: BTK degradation assay using the HiBiT Method (Nano-Glo HiBiT Lytic Assay, GM01501.3 cells)). Settings: HiBiT Degradation on GM01501.3 BTK @ 6 hours.
T1 construct: The GM01501.3 cell line endogenously expresses BTK with a HiBiT fusion tag via CRISPR knock-in at its C-terminal region; endogenous in cells; host or cells: GM01501.3 (GM01501 cells engineered by CRISPR knock-in of HiBiT at the BTK locus)
T1 sequence (Q06187 whole entry, the tested form may be a part): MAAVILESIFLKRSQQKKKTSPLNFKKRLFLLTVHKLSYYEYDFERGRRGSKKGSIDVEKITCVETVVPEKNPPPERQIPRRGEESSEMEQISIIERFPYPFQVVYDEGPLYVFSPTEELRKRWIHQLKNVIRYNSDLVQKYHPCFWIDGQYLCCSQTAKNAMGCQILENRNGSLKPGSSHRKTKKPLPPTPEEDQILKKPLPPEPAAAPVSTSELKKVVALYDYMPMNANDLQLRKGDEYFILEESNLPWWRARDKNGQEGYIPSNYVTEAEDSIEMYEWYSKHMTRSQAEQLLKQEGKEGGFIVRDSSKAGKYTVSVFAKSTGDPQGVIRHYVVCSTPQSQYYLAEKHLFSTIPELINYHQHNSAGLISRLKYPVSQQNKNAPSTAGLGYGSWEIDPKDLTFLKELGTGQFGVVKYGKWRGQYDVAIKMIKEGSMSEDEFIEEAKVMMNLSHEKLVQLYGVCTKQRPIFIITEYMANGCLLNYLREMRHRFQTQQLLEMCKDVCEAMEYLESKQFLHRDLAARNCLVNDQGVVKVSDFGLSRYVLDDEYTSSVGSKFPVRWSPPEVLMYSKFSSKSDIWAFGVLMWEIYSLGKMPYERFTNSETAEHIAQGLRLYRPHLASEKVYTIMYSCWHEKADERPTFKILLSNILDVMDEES
Assay type: cell-based
Description: Selected compounds were tested in a BTK degradation assay using the HiBiT Method. Park Memorial Institute (RPM1) 1640 Medium with phenol red, L-Glutamine, Sodium Pyruvate, and fetal bovine serum (FBS) were purchased from Gibco (Grand Island, NY, USA). Nano-Glo® HiBiT Lytic Assay System was purchased from Promega (Madison, WI, USA). GM01501 cells were obtained from the NIGMS Human Genetic Cell Repository at the Coriell Institute for Medical Research. The GM01501.3 cell line endogenously expresses BTK with a HiBiT fusion tag via CRISPR knock-in at its C-terminal region. It was engineered by electroporation with the Neon Transfection System (Themo Fisher Scientific), according to manufacturer indications. Electroporation conditions: 1 pulse of 1,350 V for 30 ms for 0.5×10_6 cells. Cell culture flasks and 384-well microplates were acquired from VWR (Radnor, PA, USA). BTK degradation was evaluated by quantification of luminescent signal using Nano-Glo® HiBiT Lytic Assay kit. Test compounds were added to the 384-well plate from a top concentration of 10 μM with 11 points, half log titration in duplicates. GM01501.3 cells were added into 384-well plates at a cell density of 10,000 cells per well in a total volume of 30 μl. The plates were kept at 37° C. with 5% CO2 for 6 hours. Negative control wells included cells treated with DMSO only and positive control wells included only growing media, without Nano-Glo® HiBiT Lytic reagent. After a 6-hour incubation, Nano-Glo® HiBiT Lytic Assay reagent was added to the cells following manufacturer indications. Luminescence was acquired on EnVision™ Multilabel Reader (PerkinElmer, Santa Clara, CA, USA). […] “++++” represents a DC50 value of less than 100 nM. “+++” represents a DC50 value of 100 nM-500 nM. “++” represents a DC50 value of 500 nM-1000 nM. “+” represents a DC50 value of greater than 1000 nM.

`Cc1cc(-c2ncnn3cc(-c4ccc(CN5CCC(c6ccc(NC7CCC(=O)NC7=O)cn6)CC5)cc4)cc23)ccc1CNC(=O)c1noc(C(C)(C)C)n1` (centres unmarked) [Example 20, 5-tert-butyl-N-[[4-[6-[4-[[4-[5-[(2,6-dioxo-3-piperidyl)amino]-2-pyridyl]-1-piperidyl]methyl]phenyl]pyrrolo[2,1-f][1,2,4]triazin-4-yl]-2-methyl-phenyl]methyl]-1,2,4-oxadiazole-3-carboxamide] and `Cc1cc(-c2ncnn3cc(-c4ccc(CN5CCC(c6ccc(NC7CCC(=O)NC7=O)nn6)CC5)cc4)cc23)ccc1CNC(=O)c1noc(C(C)(C)C)n1` (centres unmarked) [Example 31, 5-tert-butyl-N-[[4-[6-[4-[[4-[6-[(2,6-dioxo-3-piperidyl)amino]pyridazin-3-yl]-1-piperidyl]methyl]phenyl]pyrrolo[2,1-f][1,2,4]triazin-4-yl]-2-methyl-phenyl]methyl]-1,2,4-oxadiazole-3-carboxamide] cannot be ordered by DC50: less than 100 nM for the first, less than 100 nM for the second.

`COc1cc(CN2CCC(c3ccc(NC4CCC(=O)NC4=O)cc3)CC2)ccc1-c1cc2c(-c3ccc(CNC(=O)c4noc(C(C)(C)C)n4)c(C)c3)ncnn2c1` (centres unmarked) [Example 21, 5-tert-butyl-N-[[4-[6-[4-[[4-[4-[(2,6-dioxo-3-piperidyl)amino]phenyl]-1-piperidyl]methyl]-2-methoxy-phenyl]pyrrolo[2,1-f][1,2,4]triazin-4-yl]-2-methyl-phenyl]methyl]-1,2,4-oxadiazole-3-carboxamide] and `COc1cc(CN2CCC(c3ccc(C4CCC(=O)NC4=O)cc3)CC2)ccc1-c1cc2c(-c3ccc(CNC(=O)c4noc(C(C)(C)C)n4)c(C)c3)ncnn2c1` (centres unmarked) [Example 22, 5-tert-butyl-N-[[4-[6-[4-[[4-[4-(2,6-dioxo-3-piperidyl)phenyl]-1-piperidyl]methyl]-2-methoxy-phenyl]pyrrolo[2,1-f][1,2,4]triazin-4-yl]-2-methyl-phenyl]methyl]-1,2,4-oxadiazole-3-carboxamide] cannot be ordered by DC50: less than 100 nM for the first, less than 100 nM for the second.

`Cc1cc(-c2ncnn3cc(-c4ccc(CN5CCC(c6ccc(NC7CCC(=O)NC7=O)cc6)CC5)c(F)c4)cc23)ccc1CNC(=O)c1noc(C(C)(C)C)n1` (centres unmarked) [Example 23, 5-tert-butyl-N-[[4-[6-[4-[[4-[4-[(2,6-dioxo-3-piperidyl)amino]phenyl]-1-piperidyl]methyl]-3-fluoro-phenyl]pyrrolo[2,1-f][1,2,4]triazin-4-yl]-2-methyl-phenyl]methyl]-1,2,4-oxadiazole-3-carboxamide] and `Cc1cc(-c2ncnn3cc(-c4ccc(CN5CCC(c6ccc(N[C@H]7CCC(=O)NC7=O)cc6F)CC5)cc4)cc23)ccc1CNC(=O)c1noc(C(C)(C)C)n1` [Example 25, (S)-5-(tert-butyl)-N-(4-(6-(4-((4-(4-((2,6-dioxopiperidin-3-yl)amino)-2-fluorophenyl)piperidin-1-yl)methyl)phenyl)pyrrolo[2,1-f][1,2,4]triazin-4-yl)-2-methylbenzyl)-1,2,4-oxadiazole-3-carboxamide] cannot be ordered by DC50: less than 100 nM for the first, less than 100 nM for the second.

`Cc1cc(-c2ncnn3cc(-c4ccc(CN5CCC(c6ccc(NC7CCC(=O)NC7=O)cc6Cl)CC5)cc4)cc23)ccc1CNC(=O)c1noc(C(C)(C)C)n1` (centres unmarked) [Example 24, 5-tert-butyl-N-[[4-[6-[4-[[4-[2-chloro-4-[(2,6-dioxo-3-piperidyl)amino]phenyl]-1-piperidyl]methyl]phenyl]pyrrolo[2,1-f][1,2,4]triazin-4-yl]-2-methyl-phenyl]methyl]-1,2,4-oxadiazole-3-carboxamide] and `Cc1cc(-c2ncnn3cc(-c4ccc(CN5CCC(c6ccc(N[C@@H]7CCC(=O)NC7=O)cc6F)CC5)cc4)cc23)ccc1CNC(=O)c1noc(C(C)(C)C)n1` [Example 26, (R)-5-(tert-butyl)-N-(4-(6-(4-((4-(4-((2,6-dioxopiperidin-3-yl)amino)-2-fluorophenyl)piperidin-1-yl)methyl)phenyl)pyrrolo[2,1-f] [1,2,4]triazin-4-yl)-2-methylbenzyl)-1,2,4-oxadiazole-3-carboxamide] cannot be ordered by DC50: less than 100 nM for the first, less than 100 nM for the second.

`Cc1cc(-c2ncnn3cc(-c4ccc(CN5CCC(c6ccc(NC7CCC(=O)NC7=O)cc6C(F)(F)F)CC5)cc4)cc23)ccc1CNC(=O)c1noc(C(C)(C)C)n1` (centres unmarked) [Example 27, 5-tert-butyl-N-[[4-[6-[4-[[4-[4-[(2,6-dioxo-3-piperidyl)amino]-2-(trifluoromethyl)phenyl]-1-piperidyl]methyl]phenyl]pyrrolo[2,1-f][1,2,4]triazin-4-yl]-2-methyl-phenyl]methyl]-1,2,4-oxadiazole-3-carboxamide] and `Cc1cc(-c2ncnn3cc(-c4ccc(CN5CCC(c6cnc(NC7CCC(=O)NC7=O)nc6)CC5)cc4)cc23)ccc1CNC(=O)c1noc(C(C)(C)C)n1` (centres unmarked) [Example 30, 5-tert-butyl-N-[[4-[6-[4-[[4-[2-[(2,6-dioxo-3-piperidyl)amino]pyrimidin-5-yl]-1-piperidyl]methyl]phenyl]pyrrolo[2,1-f][1,2,4]triazin-4-yl]-2-methyl-phenyl]methyl]-1,2,4-oxadiazole-3-carboxamide] cannot be ordered by DC50: less than 100 nM for the first, less than 100 nM for the second.

First: Cc1cc(-c2ncnn3cc(-c4ccc(CN5CCC(c6ccc7c(N8CCC(=O)NC8=O)nn(C)c7c6)CC5)cc4)cc23)ccc1CNC(=O)c1noc(C(C)(C)C)n1 [Example 28, 5-tert-butyl-N-[[4-[6-[4-[[4-[3-(2,4-dioxohexahydropyrimidin-1-yl)-1-methyl-indazol-6-yl]-1-piperidyl]methyl]phenyl]pyrrolo[2,1-f][1,2,4]triazin-4-yl]-2-methyl-phenyl]methyl]-1,2,4-oxadiazole-3-carboxamide]
Second: CN(Cc1ccc(-c2ncnn3cc(-c4ccc(CN5CCC(c6ccc7c(N8CCC(=O)NC8=O)nn(C)c7c6)CC5)cc4)cc23)cc1F)C(=O)c1noc(C(C)(C)C)n1 [Example 37, 5-tert-butyl-N-[[4-[6-[4-[[4-[3-(2,4-dioxohexahydropyrimidin-1-yl)-1-methyl-indazol-6-yl]-1-piperidyl]methyl]phenyl]pyrrolo[2,1-f][1,2,4]triazin-4-yl]-2-fluoro-phenyl]methyl]-N-methyl-1,2,4-oxadiazole-3-carboxamide]
The DC50 of the first is lower: less than 100 nM for the first, 100 to 500 nM for the second.

`Cc1cc(-c2ncnn3cc(-c4ccc(CN5CCN(c6ccc(NC7CCC(=O)NC7=O)cc6)CC5)cc4)cc23)ccc1CNC(=O)c1noc(C(C)(C)C)n1` (centres unmarked) [Example 29, 5-tert-butyl-N-[[4-[6-[4-[[4-[4-[(2,6-dioxo-3-piperidyl)amino]phenyl]piperazin-1-yl]methyl]phenyl]pyrrolo[2,1-f][1,2,4]triazin-4-yl]-2-methyl-phenyl]methyl]-1,2,4-oxadiazole-3-carboxamide] and `CC(C)(C)c1nc(C(=O)NCc2ccc(-c3ncnn4cc(-c5ccc(CN6CCN(c7ccc(C8CCC(=O)NC8=O)cn7)CC6)cc5)cc34)cc2F)no1` (centres unmarked) [Example 36, 5-tert-butyl-N-[[4-[6-[4-[[4-[5-(2,6-dioxo-3-piperidyl)-2-pyridyl]piperazin-1-yl]methyl]phenyl]pyrrolo[2,1-f][1,2,4]triazin-4-yl]-2-fluoro-phenyl]methyl]-1,2,4-oxadiazole-3-carboxamide] cannot be ordered by DC50: less than 100 nM for the first, less than 100 nM for the second.

`CC(C)(C)c1nc(C(=O)NCc2ccc(-c3ncnn4cc(-c5ccc(CN6CCC(c7ccc(NC8CCC(=O)NC8=O)nc7)CC6)cc5)cc34)cc2F)no1` (centres unmarked) [Example 32, 5-tert-butyl-N-[[4-[6-[4-[[4-[6-[(2,6-dioxo-3-piperidyl)amino]-3-pyridyl]-1-piperidyl]methyl]phenyl]pyrrolo[2,1-f][1,2,4]triazin-4-yl]-2-fluoro-phenyl]methyl]-1,2,4-oxadiazole-3-carboxamide] and `Cn1nc(N2CCC(=O)NC2=O)c2ccc(C3CCN(Cc4ccc(-c5cc6c(-c7ccc(CNC(=O)c8noc(C(C)(C)C)n8)c(F)c7)ncnn6c5)cc4F)CC3)cc21` [Example 33, 5-tert-butyl-N-[[4-[6-[4-[[4-[3-(2,4-dioxohexahydropyrimidin-1-yl)-1-methyl-indazol-6-yl]-1-piperidyl]methyl]-3-fluoro-phenyl]pyrrolo[2,1-f][1,2,4]triazin-4-yl]-2-fluoro-phenyl]methyl]-1,2,4-oxadiazole-3-carboxamide] cannot be ordered by DC50: less than 100 nM for the first, less than 100 nM for the second.

Work on `CN(CCn1ccc(NC2CCC(=O)NC2=O)n1)Cc1ccc(-c2cc3c(-c4ccc(CNC(=O)c5noc(C(C)(C)C)n5)c(F)c4)ncnn3c2)cc1F` (centres unmarked) [Example 34, 5-tert-butyl-N-[[4-[6-[4-[[2-[3-[(2,6-dioxo-3-piperidyl)amino]pyrazol-1-yl]ethyl-methyl-amino]methyl]-3-fluoro-phenyl]pyrrolo[2,1-f][1,2,4]triazin-4-yl]-2-fluoro-phenyl]methyl]-1,2,4-oxadiazole-3-carboxamide] yielded a DC50 of less than 100 nM.
